For one compound, IC50 results are on record in ChEMBL document CHEMBL5126524, “Niemann-Pick C1-Like 1 inhibitors for reducing cholesterol absorption” (Eur J Med Chem, 2022).

The assay concerns the target T1, NPC1-like intracellular cholesterol transporter 1 (Homo sapiens, UniProt Q9UHC9).
T1 sequence (Q9UHC9 whole entry): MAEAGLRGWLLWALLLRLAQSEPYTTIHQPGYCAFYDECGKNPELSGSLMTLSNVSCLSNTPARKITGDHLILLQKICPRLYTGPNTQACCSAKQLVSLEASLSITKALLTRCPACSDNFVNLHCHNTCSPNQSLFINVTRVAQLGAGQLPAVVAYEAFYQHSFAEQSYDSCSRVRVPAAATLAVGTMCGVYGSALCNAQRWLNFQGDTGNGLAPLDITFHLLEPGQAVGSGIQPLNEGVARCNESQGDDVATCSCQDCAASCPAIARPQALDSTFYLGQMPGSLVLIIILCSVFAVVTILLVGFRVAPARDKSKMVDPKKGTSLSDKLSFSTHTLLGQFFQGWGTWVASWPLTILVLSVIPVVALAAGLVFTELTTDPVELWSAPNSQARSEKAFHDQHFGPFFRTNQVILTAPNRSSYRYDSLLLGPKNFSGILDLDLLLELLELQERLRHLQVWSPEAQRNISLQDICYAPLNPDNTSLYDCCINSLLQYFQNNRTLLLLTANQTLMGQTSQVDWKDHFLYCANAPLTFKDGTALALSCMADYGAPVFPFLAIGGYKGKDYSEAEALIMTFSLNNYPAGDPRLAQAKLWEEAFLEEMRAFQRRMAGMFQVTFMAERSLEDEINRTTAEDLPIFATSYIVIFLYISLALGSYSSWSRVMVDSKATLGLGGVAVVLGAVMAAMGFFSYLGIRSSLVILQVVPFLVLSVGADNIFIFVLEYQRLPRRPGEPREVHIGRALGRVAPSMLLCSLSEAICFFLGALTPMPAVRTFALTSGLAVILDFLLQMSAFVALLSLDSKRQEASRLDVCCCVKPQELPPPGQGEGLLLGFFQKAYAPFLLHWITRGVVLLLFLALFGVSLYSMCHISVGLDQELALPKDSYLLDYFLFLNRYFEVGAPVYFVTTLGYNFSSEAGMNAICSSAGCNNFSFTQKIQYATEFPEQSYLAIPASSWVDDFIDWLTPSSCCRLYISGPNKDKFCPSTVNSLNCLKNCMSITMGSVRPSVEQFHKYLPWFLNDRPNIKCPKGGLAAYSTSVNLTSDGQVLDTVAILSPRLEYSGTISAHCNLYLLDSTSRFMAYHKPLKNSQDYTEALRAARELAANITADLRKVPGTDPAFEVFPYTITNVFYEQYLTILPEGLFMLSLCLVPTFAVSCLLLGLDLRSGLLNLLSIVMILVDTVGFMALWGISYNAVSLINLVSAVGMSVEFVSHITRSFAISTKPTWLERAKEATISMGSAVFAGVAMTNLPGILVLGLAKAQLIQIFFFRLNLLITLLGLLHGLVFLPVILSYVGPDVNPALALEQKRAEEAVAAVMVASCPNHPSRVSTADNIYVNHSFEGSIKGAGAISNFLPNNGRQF
As to the kind of experiment: Inhibition of NPC1L1 (unknown origin) assessed as inhibition of cholesterol cellular uptake by BCA colorimetric assay.

For the compound `O=C1[C@H](CC[C@H](O)c2ccc(F)cc2)[C@@H](c2ccc(O)cc2)N1c1ccc(F)cc1` [EZETIMIBE], the IC50 came out at 0.37 µM.

By IC50 is commonly meant the concentration that inhibits the measured activity by half.
